Measurements taken from publication PMC10747661, “Preparation of trans-Crocetin with High Solubility, Stability, and Oral Bioavailability by Incorporation into Three Types of Cyclodextrins” (Pharmaceutics, 2023).
Values after ≈ are worked out from the molar mass of the structure shown. Like-named read-outs stand apart in the source and are kept apart here.

Columns and labels:
[1] = Dissolution test (USP paddle method); assay type: physicochemical; conditions: phosphate buffer pH 6.8, 900 mL, 100 rpm, 37 °C
Protocol: The dissolution of CRT, PMs, and ICs was evaluated using the USP (version 26) paddle method with a dissolution tester (Tianjin University Electronics Co., Ltd., Tianjin, China). The dissolution medium was phosphate buffer (pH 6.8, 900 mL); the paddles were rotated at 100 rpm at 37.0 ± 0.5 °C. A sample volume of 5 mL was withdrawn from the dissolution medium at predetermined sampling points, filtered using a […] microporous filter membrane, and analyzed via HPLC. All dissolution tests were performed in triplicate.

[2] = Solubility determination; assay type: physicochemical; conditions: thermodynamic from solid, 25 °C
Protocol: Drug solubility at 25 ± 0.5 °C was determined in water and phosphate buffer (pH 6.8). Excesses of CRT and each IC were added to each fluid and placed in a thermostatic water bath in the dark at 25 ± 0.5 °C with a constant shaking rate of 100 rpm for 72 h. After the equilibrium state was reached, the solutions were centrifuged for 15 min, and 2 mL of the supernatant was diluted with an appropriate amount of methanol. Drug concentrations were determined using HPLC.

[3] = Effect of storage on stability (heat, light, moisture); assay type: physicochemical; conditions: 60 ± 0.5 °C, 10 days
Protocol: All samples were sealed in transparent glass bottles and divided into three groups, each containing CRT/α-CD IC (500 mg), CRT/HP-β-CD IC (500 mg), CRT/γ-CD IC (500 mg), and intact CRT (500 mg). The first group was stored at 60 ± 0.5 °C for 10 days. The second group was stored at 25 ± 0.5 °C with a light intensity of 4500 ± 500 lx for 10 days. The third group was stored at 25 ± 0.5 °C with 75% relative humidity for 10 days. The CRT contents were sampled and measured on days 0, 5, and 10. Each test was repeated at least three times.

[4] = Pharmacokinetics study after intragastric administration; assay type: in vivo; conditions: Sprague-Dawley, rat, plasma, po, SD rats, 20 mg/kg intragastric, n = 6
Protocol: Twenty-four SD rats were randomly divided into four groups and administered CRT/α-CD IC, CRT/HP-β-CD IC, CRT/γ-CD IC, or intact CRT. All rats were fasted for 12 h and only provided water before experiments. All samples at a dose of 20 mg/kg body weight were administered intragastrically. Blood samples (0.4 mL) were collected from the orbital venous plexus at predetermined time points (0.083, 0.167, 0.25, 0.5, 1, 2, 4, 6, 8, 12, and 24 h) into tubes containing heparin sodium. The blood samples were centrifuged immediately at 4000 rpm for 15 min; the supernatant layer of plasma was separated and stored at 4 °C for 24 h. CRT in plasma was extracted with 600 μL methanol with an internal standard of 10 μL ATRA from 200 μL plasma samples and centrifuged at 10,000 rpm for 15 min at 4 °C. The supernatant layer was transferred to a new tube, concentrated to remove solvents under the LSE-1K vacuum centrifuge concentrator (JTLIANGYOU, Changzhou, China), and redissolved in 200 μL of methanol for analysis. The concentration of CRT was determined using an HPLC (Waters HPLC system consisting of a 2695–2487 UV detector, Milford, MA, USA) using a COSMOSIL-C18 (150 mm × 4.6 mm, 5 μm) column with a detection wavelength of 424 nm. The injection volume was 20 μL, the column temperature was 35 °C, the mobile phase was methanol with water and glacial acetic acid in a ratio (v:v:v) of 92:7.7:0.3, and the flow rate was 1 mL/min. The pharmacokinetic parameters were calculated using DAS 2.0. Relative bioavailability percentage was calculated as follows:Relative bioavailability (%) = (AUC0–∞ IC/AUC0–∞ CRT) × 100 (2)

[5] = design: method as in PMID 16131146; conditions: mice, oral, cited from earlier work
[6] = design: method as in PMID 21112749, PMID 21398065; conditions: humans, CRT or saffron tea orally, cited from earlier work

Which results are given for `CC(/C=C/C=C(\C)C(=O)O)=C\C=C\C=C(C)\C=C\C=C(/C)C(=O)O` [CRT, Crocetin]?
cumulative dissolution rate at 180 min [1]: 13%; solubility at 72 h ([2]; phosphate buffer, pH 6.86, aqueous buffer, buffer salt, read-out: Solubility of CRT in pH6.86 Buffer Salt): 1.84 ± 0.11 µg/mL; solubility at 72 h ([2]; water, read-out: Solubility of CRT in H2O): 1.23 ± 0.07 µg/mL (≈ 3.75 µM); relative content (retention) of CRT after thermal treatment [3]: 80%; AUC(0-inf) [4]: 2660 ± 196 ng·h/mL; Cmax [4]: 545 ± 23 ng/mL; Tmax [4]: 2 h; half-life [4]: 2.06 ± 0.237 h; AUC(0-t) ([4]; read-out: AUC0–12): 2410 ± 163 ng·h/mL; MRT last ([4]; read-out: MRT0–12): 3.03 ± 0.082 h; time of highest plasma concentration ([5]; dose of 117.2 mg/mL): approximately 2 h; highest plasma concentration of CRT [5]: 1249.3 ± 788.1 ng/mL; concentrations of CRT in the blood ([6]; based on the dose): 100.9 to 279.7 ng/mL; Tmax [6]: approximately 4.6 h
